± gives the expanded uncertainty stated by the source.
Assay: molar heat capacity at saturation pressure
Conditions: Liquid, Vacuum adiabatic calorimetry

CCC [propane]
Conditions	molar heat capacity [J/K/mol]
88.92 K	84.87 ± 1.2
91.12 K	84.92 ± 1.2
92.73 K	84.92 ± 1.2
94.89 K	85.02 ± 1.2
96.47 K	84.96 ± 1.2
98.58 K	85.12 ± 1.2
100.13 K	85.19 ± 1.2
102.21 K	85.32 ± 1.2
103.73 K	85.36 ± 1.2
105.78 K	85.44 ± 1.2
107.27 K	85.47 ± 1.2
109.28 K	85.76 ± 1.2
110.76 K	85.79 ± 1.2
112.74 K	85.84 ± 1.2
114.19 K	85.97 ± 1.2
116.15 K	86.05 ± 1.2
117.58 K	86.14 ± 1.2
119.51 K	86.16 ± 1.2
120.93 K	86.45 ± 1.2
122.83 K	86.51 ± 1.2
124.23 K	86.53 ± 1.2
126.12 K	86.66 ± 1.2
127.5 K	86.9 ± 1.2
129.36 K	86.88 ± 1.2
130.73 K	87.09 ± 1.2
132.57 K	87.07 ± 1.2
133.93 K	87.31 ± 1.2
135.75 K	87.22 ± 1.2
137.1 K	87.67 ± 1.2
138.9 K	87.5 ± 1.2
140.23 K	87.61 ± 1.2
142.01 K	87.94 ± 1.2
143.34 K	87.91 ± 1.2
145.1 K	88.06 ± 1.2
146.41 K	88.35 ± 1.2
148.16 K	88.33 ± 1.2
149.46 K	88.44 ± 1.2
151.2 K	88.72 ± 1.3
152.48 K	88.71 ± 1.3
154.21 K	88.83 ± 1.3
155.47 K	89 ± 1.3
157.2 K	89.06 ± 1.3
158.45 K	89.26 ± 1.3
160.15 K	89.66 ± 1.3
161.4 K	89.43 ± 1.3
163.09 K	90.05 ± 1.3
164.34 K	89.53 ± 1.3
166 K	90.04 ± 1.3
167.25 K	90.06 ± 1.3
168.9 K	90.24 ± 1.3
170.14 K	90.37 ± 1.3
171.79 K	90.38 ± 1.3
173.01 K	90.28 ± 1.3
174.65 K	90.89 ± 1.3
175.86 K	90.91 ± 1.3
177.49 K	91.25 ± 1.3
178.7 K	91.17 ± 1.3
180.31 K	91.67 ± 1.3
181.51 K	91.3 ± 1.3
183.12 K	91.84 ± 1.3
184.31 K	91.75 ± 1.3
185.91 K	92.02 ± 1.3
187.09 K	92.23 ± 1.3
188.68 K	92.09 ± 1.3
189.85 K	92.57 ± 1.3
191.44 K	92.72 ± 1.3
192.61 K	92.88 ± 1.3
194.18 K	93.05 ± 1.3
195.34 K	93.67 ± 1.3
196.91 K	93.56 ± 1.3
198.06 K	93.95 ± 1.3
199.62 K	94.02 ± 1.3
200.76 K	94.12 ± 1.3
202.32 K	94.07 ± 1.3
203.45 K	94.68 ± 1.3
205.01 K	94.36 ± 1.3
206.14 K	94.22 ± 1.3
207.69 K	94.92 ± 1.4
208.8 K	94.54 ± 1.3
210.35 K	95.41 ± 1.4
211.45 K	95.58 ± 1.4
213 K	96.05 ± 1.4
214.1 K	96.24 ± 1.4
215.65 K	96.38 ± 1.4
216.73 K	96.69 ± 1.4
218.28 K	97.14 ± 1.4
219.35 K	97.4 ± 1.4
220.9 K	96.94 ± 1.4
221.97 K	97.43 ± 1.4
223.51 K	97.28 ± 1.4
224.57 K	97.58 ± 1.4
226.12 K	98.17 ± 1.4
227.16 K	98.39 ± 1.4
228.72 K	98.66 ± 1.4
229.75 K	98.99 ± 1.4
231.31 K	99.11 ± 1.4
232.33 K	99.49 ± 1.4
233.9 K	99.63 ± 1.4
234.9 K	99.41 ± 1.4
236.47 K	99.64 ± 1.4
237.46 K	100.12 ± 1.4
239.04 K	100.21 ± 1.4
240.02 K	100.5 ± 1.4
241.61 K	100.94 ± 1.4
242.57 K	101.2 ± 1.4
244.17 K	101.8 ± 1.4
245.12 K	101.78 ± 1.4
246.72 K	102.66 ± 1.4
247.66 K	102.27 ± 1.4
249.28 K	103.18 ± 1.5
250.2 K	102.98 ± 1.5
251.83 K	103.62 ± 1.5
252.74 K	103.41 ± 1.5
254.37 K	104.07 ± 1.5
255.27 K	103.99 ± 1.5
256.92 K	104.47 ± 1.5
257.8 K	104.55 ± 1.5
259.46 K	104.97 ± 1.5
260.32 K	105.39 ± 1.5
262 K	106 ± 1.5
262.85 K	106.36 ± 1.5
264.54 K	106.11 ± 1.5
265.38 K	106.45 ± 1.5
267.08 K	107.17 ± 1.5
267.9 K	107.71 ± 1.5
267.92 K	107.58 ± 1.5
269.62 K	107.64 ± 1.5
270.42 K	108.4 ± 1.5
270.71 K	108.16 ± 1.5
271.49 K	109.25 ± 1.6
272.15 K	109.03 ± 1.5
272.92 K	109.16 ± 1.5
273.04 K	108.7 ± 1.5
273.85 K	109.09 ± 1.5
274.7 K	109.64 ± 1.6
275.38 K	109.29 ± 1.6
275.42 K	110.08 ± 1.6
276.2 K	109.72 ± 1.6
277.24 K	110.22 ± 1.6
277.72 K	110.44 ± 1.6
277.92 K	110.44 ± 1.6
278.57 K	110.68 ± 1.6
279.78 K	110.83 ± 1.6
280.07 K	110.92 ± 1.6
280.41 K	111.44 ± 1.6
280.93 K	111.66 ± 1.6
282.32 K	111.64 ± 1.6
282.41 K	112.19 ± 1.6
282.91 K	112.06 ± 1.6
283.3 K	112.78 ± 1.6
284.77 K	113.05 ± 1.6
284.86 K	112.93 ± 1.6
285.41 K	112.26 ± 1.6
285.68 K	112.86 ± 1.6
287.13 K	113.09 ± 1.6
287.41 K	113.95 ± 1.6
287.91 K	113.12 ± 1.6
288.05 K	113.08 ± 1.6
289.5 K	114.17 ± 1.6
289.95 K	114.64 ± 1.6
290.41 K	114.75 ± 1.6
290.43 K	114.57 ± 1.6
291.86 K	114.95 ± 1.6
292.5 K	115.46 ± 1.6
292.81 K	115.77 ± 1.6
292.93 K	115.51 ± 1.6
294.24 K	115.29 ± 1.6
295.04 K	116.36 ± 1.6
295.21 K	116 ± 1.6
295.44 K	116.88 ± 1.6
296.61 K	116.56 ± 1.6
297.59 K	117.55 ± 1.7
297.6 K	116.98 ± 1.6
297.96 K	117.85 ± 1.7
298.99 K	117.8 ± 1.7
300 K	118.27 ± 1.7
300.14 K	118.94 ± 1.7
300.48 K	117.96 ± 1.7
301.38 K	118.85 ± 1.7
302.4 K	119.55 ± 1.7
302.69 K	119.67 ± 1.7
303.01 K	118.38 ± 1.7
303.77 K	119.3 ± 1.7
304.81 K	120.27 ± 1.7
305.25 K	120.48 ± 1.7
305.54 K	119.64 ± 1.7
306.16 K	120.81 ± 1.7
307.23 K	121.32 ± 1.7
307.82 K	121.03 ± 1.7
308.07 K	121.52 ± 1.7
308.57 K	122.04 ± 1.7
309.65 K	121.95 ± 1.7
310.38 K	122.63 ± 1.7
310.62 K	122.47 ± 1.7
310.98 K	123.64 ± 1.8
312.07 K	123.46 ± 1.7
312.95 K	123.93 ± 1.8
313.15 K	124.63 ± 1.8
313.4 K	124.69 ± 1.8
314.51 K	124.14 ± 1.8
315.53 K	124.76 ± 1.8
315.71 K	125.89 ± 1.8
315.83 K	124.99 ± 1.8
318.12 K	125.37 ± 1.8
318.27 K	126.41 ± 1.8
323.24 K	129.01 ± 1.8
323.35 K	129.31 ± 1.8
325.84 K	130.18 ± 1.8
325.93 K	131.3 ± 1.9
328.44 K	132.33 ± 1.9
328.51 K	133.4 ± 1.9
331.06 K	135.04 ± 1.9
331.1 K	135.99 ± 1.9
333.69 K	136.44 ± 1.9
333.7 K	137.68 ± 1.9
336.31 K	139.1 ± 2
336.32 K	139.03 ± 2
338.93 K	140.95 ± 2
338.96 K	142.73 ± 2
341.56 K	144.64 ± 2
341.61 K	145.97 ± 2.1
344.21 K	149.14 ± 2.1
344.27 K	148.36 ± 2.1

— the NIST ThermoML archive (doi:10.1021/je900137r)
